Experimental data: US6211214A, “Biphenyl ether oxazolines and their use as pest-control agents” (Bayer Aktiengesellschaft, priority 1995, dated 2001)
Where two headings read alike, the source gives them in different places.

Assay: log p (partition coefficient octanol/water, determined experimentally from reversed phase HPLC)
Type: physicochemical
Details: for chromatographic logP: reversed phase hplc
Source text: [log p=logarithm of the partition coefficient p of the substance between the solvents octanol and water, determined experimentally from reversed phase HPLC]

## CCON=C(C)C(C)Oc1ccc(-c2ccc(C3COC(c4c(F)cccc4F)=N3)cc2)cc1 (single isomer, unassigned) [Example 70]
  chromatographic logP: 5.12

## CCON=C(C)C(C)Oc1ccc(-c2ccc(C3COC(c4ccccc4Cl)=N3)cc2)cc1 (single isomer, unassigned) [Example 85]
  chromatographic logP: 5.4

## CCOC(=O)C(C)Oc1ccc(-c2ccc(C3COC(c4c(F)cccc4F)=N3)cc2)cc1 (stereo not drawn) [Example 3, 2-(2,6-difluorophenyl)-4-[4'-(1-ethoxycarbonyl-eth-1-yl-oxy)-biphenyl-4-yl]-1,3-oxazoline]
  chromatographic logP: 4.12

## CCOC(=O)C(CC)Oc1ccc(-c2ccc(C3COC(c4c(F)cccc4F)=N3)cc2)cc1 (stereo not drawn) [Example 11]
  chromatographic logP: 4.53

## CCOC(=O)C(C)Oc1ccc(-c2ccc(C3COC(c4c(F)cccc4F)=N3)cc2)cc1 (stereo not drawn) [Example 12]
  log p: 3.80

## CCN(CC)C(=O)COc1ccc(-c2ccc(C3COC(c4c(F)cccc4F)=N3)cc2)cc1 (stereo not drawn) [Example 15]
  chromatographic logP: 3.35

## CC(C)C(C#N)Oc1ccc(-c2ccc(C3COC(c4c(F)cccc4F)=N3)cc2)cc1 (stereo not drawn) [Example 17]
  chromatographic logP: 4.45

## CCC(Oc1ccc(-c2ccc(C3COC(c4c(F)cccc4F)=N3)cc2)cc1)C(=O)OC (stereo not drawn) [Example 19]
  chromatographic logP: 4.18

## CON=C(C)C(C)Oc1ccc(-c2ccc(C3COC(c4c(F)cccc4F)=N3)cc2)cc1 (stereo not drawn) [Example 23]
A isomer
  chromatographic logP: 4.62
B isomer
  chromatographic logP: 4.71

## CO/N=C(/COc1ccc(-c2ccc(C3COC(c4c(F)cccc4F)=N3)cc2)cc1)C1CC1 (stereo not drawn) [Example 24]
E isomer
  chromatographic logP: 4.9

## CCON=C(C)COc1ccc(-c2ccc(C3COC(c4c(F)cccc4F)=N3)cc2)cc1 (stereo not drawn) [Example 25]
B isomer
  chromatographic logP: 4.76

## CON=C(COc1ccc(-c2ccc(C3COC(c4c(F)cccc4F)=N3)cc2)cc1)C1CC1 (stereo not drawn) [Example 26]
A isomer
  chromatographic logP: 4.9
B isomer
  chromatographic logP: 4.56

## CON=C(COc1ccc(-c2ccc(C3COC(c4c(F)cccc4F)=N3)cc2)cc1)c1ccccc1 (stereo not drawn) [Example 27]
A isomer
  chromatographic logP: 4.74

## CON(C)C(=O)COc1ccc(-c2ccc(C3COC(c4c(F)cccc4F)=N3)cc2)cc1 (stereo not drawn) [Example 34]
  chromatographic logP: 3.07

## CCOC(COc1ccc(-c2ccc(C3COC(c4c(F)cccc4F)=N3)cc2)cc1)OCC (stereo not drawn) [Example 43]
  chromatographic logP: 4.44

## C=CCN(CC=C)C(=O)COc1ccc(-c2ccc(C3COC(c4c(F)cccc4F)=N3)cc2)cc1 (stereo not drawn) [Example 47]
  chromatographic logP: 3.76

## CCON=C(C)C(C)Oc1ccc(-c2ccc(C3COC(c4c(F)cccc4F)=N3)cc2)cc1 (stereo not drawn) [Example 48]
A isomer
  chromatographic logP: 5.02
B isomer
  chromatographic logP: 5.13

## O=C(COc1ccc(-c2ccc(C3COC(c4ccccc4Cl)=N3)cc2)cc1)c1ccccc1 (stereo not drawn) [Example 49]
  chromatographic logP: 4.38

## CON=C(COc1ccc(-c2ccc(C3COC(c4ccccc4Cl)=N3)cc2)cc1)c1ccccc1 (stereo not drawn) [Example 52]
  chromatographic logP: 5.4

## O=C(COc1ccc(-c2ccc(C3COC(c4c(F)cccc4F)=N3)cc2)cc1)C1(Cl)CC1 (stereo not drawn) [Example 54]
  chromatographic logP: 4.04

## CON=C(COc1ccc(-c2ccc(C3COC(c4c(F)cccc4F)=N3)cc2)cc1)C1(Cl)CC1 (stereo not drawn) [Example 55]
A isomer
  chromatographic logP: 5.09
B isomer
  chromatographic logP: 4.78

## CCON=C(COc1ccc(-c2ccc(C3COC(c4c(F)cccc4F)=N3)cc2)cc1)C1CC1 (stereo not drawn) [Example 56]
A isomer
  chromatographic logP: 5.28
B isomer
  chromatographic logP: 4.92

## CCON=C(COc1ccc(-c2ccc(C3COC(c4c(F)cccc4F)=N3)cc2)cc1)C1(Cl)CC1 (stereo not drawn) [Example 57]
A isomer
  chromatographic logP: 5.49
B isomer
  chromatographic logP: 4.85

## CCON=C(C)C(C)Oc1ccc(-c2ccc(C3COC(c4ccccc4Cl)=N3)cc2)cc1 (stereo not drawn) [Example 59]
A isomer
  chromatographic logP: 5.44
B isomer
  chromatographic logP: 5.56

## CCCCC(Oc1ccc(-c2ccc(C3COC(c4c(F)cccc4F)=N3)cc2)cc1)C(=O)OCC (stereo not drawn) [Example 61]
  chromatographic logP: 5.24

## CCON=C(C)C(C)Oc1ccc(-c2ccc(C3COC(c4c(F)cccc4Cl)=N3)cc2)cc1 (stereo not drawn) [Example 62]
A isomer
  chromatographic logP: 5.31
B isomer
  chromatographic logP: 5.42

## CC(=NO)C(C)Oc1ccc(-c2ccc(C3COC(c4c(F)cccc4F)=N3)cc2)cc1 (stereo not drawn) [Example 64]
A isomer
  chromatographic logP: 3.48
B isomer
  chromatographic logP: 3.54

## CCON=C(CC)COc1ccc(-c2ccc(C3COC(c4c(F)cccc4F)=N3)cc2)cc1 (stereo not drawn) [Example 66]
A isomer
  chromatographic logP: 4.98
B isomer
  chromatographic logP: 4.9

## CCON=C(COc1ccc(-c2ccc(C3COC(c4c(F)cccc4F)=N3)cc2)cc1)C1CC1 (stereo not drawn) [Example 67]
A isomer
  log p: 4.72
B isomer
  log p: 4.61

## CC(C)C(C)(C)C(=O)COc1ccc(-c2ccc(C3COC(c4c(F)cccc4F)=N3)cc2)cc1 (stereo not drawn) [Example 68]
  chromatographic logP: 4.55

## CC(=NOC(C)C)C(C)Oc1ccc(-c2ccc(C3COC(c4c(F)cccc4F)=N3)cc2)cc1 (stereo not drawn) [Example 69]
  chromatographic logP: 4.47

## CC(C)(C(=O)COc1ccc(-c2ccc(C3COC(c4c(F)cccc4F)=N3)cc2)cc1)C(Cl)Cl (stereo not drawn) [Example 71]
  chromatographic logP: 4.55

## CCON=C(COc1ccc(-c2ccc(C3COC(c4c(F)cccc4F)=N3)cc2)cc1)C(C)C (stereo not drawn) [Example 78]
A isomer
  chromatographic logP: 5.72
B isomer
  chromatographic logP: 5.49

## CCON=C(COc1ccc(-c2ccc(C3COC(c4c(F)cccc4F)=N3)cc2)cc1)C(C)(C)C (stereo not drawn) [Example 79]
  chromatographic logP: 5.95

## CC(COc1ccc(-c2ccc(C3COC(c4c(F)cccc4F)=N3)cc2)cc1)=NOC(C)C (stereo not drawn) [Example 80]
A isomer
  chromatographic logP: 5.1
B isomer
  chromatographic logP: 5.17

## CCON=C(C)COc1ccc(-c2ccc(C3COC(c4c(F)cccc4Cl)=N3)cc2)cc1 (stereo not drawn) [Example 81]
  chromatographic logP: 4.98

## CC(COc1ccc(-c2ccc(C3COC(c4c(F)cccc4F)=N3)cc2)cc1)=NOCc1ccccc1 (stereo not drawn) [Example 82]
A isomer
  chromatographic logP: 5.15

## CCON=C(C)COc1ccc(-c2ccc(C3COC(c4c(F)cccc4F)=N3)cc2)cc1 (stereo not drawn) [Example 83]
B isomer
  log p: 5.56
A isomer
  chromatographic logP: 5.49

## CON=C(C)COc1ccc(-c2ccc(C3COC(c4c(F)cccc4F)=N3)cc2)cc1Cl (stereo not drawn) [Example 86]
A isomer
  chromatographic logP: 4.79
B isomer
  chromatographic logP: 4.7

## CCON=C(C)COc1ccc(-c2ccc(C3COC(c4c(F)cccc4F)=N3)cc2)cc1Cl (stereo not drawn) [Example 87]
A isomer
  chromatographic logP: 5.39
B isomer
  chromatographic logP: 5.19

## C=CCON=C(C)C(C)Oc1ccc(-c2ccc(C3COC(c4c(F)cccc4F)=N3)cc2)cc1 (stereo not drawn) [Example 88]
A isomer
  chromatographic logP: 5.04
B isomer
  chromatographic logP: 5.13

## C=CCON=C(C)COc1ccc(-c2ccc(C3COC(c4c(F)cccc4F)=N3)cc2)cc1 (stereo not drawn) [Example 89]
A isomer
  chromatographic logP: 4.78
B isomer
  chromatographic logP: 4.72

## CCCC(C#N)Oc1ccc(-c2ccc(C3COC(c4c(F)cccc4F)=N3)cc2)cc1Cl (stereo not drawn) [Example 91]
  chromatographic logP: 4.87

## O=C(COc1ccc(-c2ccc(C3COC(c4c(F)cccc4Cl)=N3)cc2)cc1)c1ccccc1 (stereo not drawn) [Example 93]
  chromatographic logP: 4.28

## CON=C(COc1ccc(-c2ccc(C3COC(c4c(F)cccc4Cl)=N3)cc2)cc1)c1ccccc1 (stereo not drawn) [Example 94]
  chromatographic logP: 5.25

## CC(C#N)Oc1ccc(-c2ccc(C3COC(c4c(F)cccc4F)=N3)cc2)cc1Cl (stereo not drawn) [Example 95]
  chromatographic logP: 4.06

## CCOC(CCOc1ccc(-c2ccc(C3COC(c4c(F)cccc4F)=N3)cc2)cc1Cl)OCC (stereo not drawn) [Example 97]
  chromatographic logP: 5.12

## CC1(COc2ccc(-c3ccc(C4COC(c5c(F)cccc5F)=N4)cc3)cc2)OCCO1 (stereo not drawn) [Example 98]
  chromatographic logP: 3.77

## CCON=C(C)C(C)(C)Oc1ccc(-c2ccc(C3COC(c4c(F)cccc4F)=N3)cc2)cc1 (stereo not drawn) [Example 99]
  chromatographic logP: 5.57

## CON=C(C)C(C)(C)Oc1ccc(-c2ccc(C3COC(c4c(F)cccc4F)=N3)cc2)cc1 (stereo not drawn) [Example 100]
  chromatographic logP: 5.14

## CC(=O)C(C)Oc1ccc(-c2ccc(C3COC(c4c(F)cccc4F)=N3)cc2)cc1Cl (stereo not drawn) [Example 101]
  chromatographic logP: 4.15

## CC(C)C(C#N)Oc1ccc(-c2ccc(C3COC(c4c(F)cccc4F)=N3)cc2)cc1Cl (stereo not drawn) [Example 102]
  chromatographic logP: 4.84

## CON=C(c1cccc(C(F)(F)F)c1)C(C)Oc1ccc(-c2ccc(C3COC(c4c(F)cccc4F)=N3)cc2)cc1 (stereo not drawn) [Example 106]
  chromatographic logP: 5.5

## CON=C(c1ccccc1F)C(C)Oc1ccc(-c2ccc(C3COC(c4c(F)cccc4F)=N3)cc2)cc1 (stereo not drawn) [Example 108]
  chromatographic logP: 5.01

## CON=C(COc1ccc(-c2ccc(C3COC(c4c(F)cccc4F)=N3)cc2)cc1)c1ccc(C(F)(F)F)cc1 (stereo not drawn) [Example 111]
  chromatographic logP: 5.53

## CCON=C(COc1ccc(-c2ccc(C3COC(c4c(F)cccc4F)=N3)cc2)cc1)c1ccc(C(F)(F)F)cc1 (stereo not drawn) [Example 112]
A isomer
  chromatographic logP: 5.87
B isomer
  chromatographic logP: 5.57

## CC(=O)C(C)Oc1ccc(-c2ccc(C3COC(c4ccccc4Cl)=N3)cc2)cc1Cl (stereo not drawn) [Example 113]
  chromatographic logP: 4.51

## O=C(COc1ccc(-c2ccc(C3COC(c4c(F)cccc4F)=N3)cc2)cc1)c1ccc(OC(F)F)cc1 (stereo not drawn) [Example 114]
  chromatographic logP: 4.16

## CON=C(COc1ccc(-c2ccc(C3COC(c4c(F)cccc4F)=N3)cc2)cc1)c1cccc(Cl)c1 (stereo not drawn) [Example 115]
A isomer
  chromatographic logP: 5.52
B isomer
  chromatographic logP: 5.19

## CCON=C(COc1ccc(-c2ccc(C3COC(c4c(F)cccc4F)=N3)cc2)cc1)c1cccc(Cl)c1 (stereo not drawn) [Example 116]
A isomer
  chromatographic logP: 5.89
B isomer
  chromatographic logP: 5.54

## Cc1cc(C(=O)COc2ccc(-c3ccc(C4COC(c5c(F)cccc5F)=N4)cc3)cc2)ccc1Cl (stereo not drawn) [Example 117]
  chromatographic logP: 4.86

## CCON=C(COc1ccc(-c2ccc(C3COC(c4c(F)cccc4F)=N3)cc2)cc1)c1ccc(Br)cc1 (stereo not drawn) [Example 118]
A isomer
  chromatographic logP: 5.65
B isomer
  chromatographic logP: 5.57

## CCON=C(COc1ccc(-c2ccc(C3COC(c4c(F)cccc4F)=N3)cc2)cc1)c1ccc(Br)cc1 (stereo not drawn) [Example 119]
A isomer
  log p: 6.03
B isomer
  log p: 5.72

## C=CCON=C(C)C(C)Oc1ccc(-c2ccc(C3COC(c4c(F)cccc4Cl)=N3)cc2)cc1 (stereo not drawn) [Example 120]
A isomer
  chromatographic logP: 5.7
B isomer
  chromatographic logP: 5.81

## CON=C(COc1ccc(-c2ccc(C3COC(c4c(F)cccc4F)=N3)cc2)cc1)c1cccc(C(F)(F)F)c1 (stereo not drawn) [Example 121]
A isomer
  chromatographic logP: 5.8
B isomer
  chromatographic logP: 4.49
